Measured values taken from PMC4886532, “A highly soluble, non-phototoxic, non-fluorescent blebbistatin derivative” (Scientific Reports, 2016).
≈ marks a conversion by molar mass, not a printed value. Read-outs that look alike come from different tables or passages of the source.

Tests used:
[1] = tested on: zebrafish heart muscle; assay: Heart beating and amplitude of heart muscle contraction; type: in vivo, zebrafish (Danio rerio); conditions: 20 μM, 6 dpf
Protocol: (§1) Since the myosin II inhibitors decrease the ATPase activity of SkS1 in vitro, we tested their inhibition on zebrafish skeletal muscle in vivo. We investigated the fast escape response (C-start) reflex of 6 dpf fish evoked by standardized tapping stimuli (Video 1). […] The velocity of the rotating heads of the embryos were quantified (maximal angular velocity) in the absence and in the presence of increasing concentrations of the myosin II inhibitors (2, 5, 10, 20 μM), monitored for 4 hours. The half maximal effective concentration (EC50) values for the inhibition of the maximal angular velocity by the myosin II inhibitors are below 2 μM since even at 2 μM the inhibitory effects were >90% for all inhibitors. We experienced that the inhibitory effect of para-aminoblebbistatin is exerted much slower than that of blebbistatin and para-nitroblebbistatin, probably due to its slower uptake (half inhibitions at […], respectively) (Supplementary Figure 1). To further evaluate the specificity of blebbistatin and its derivatives on different myosin II isoforms, we examined the effect of the inhibitors on 6 dpf (days post fertilization) zebrafish heart muscle in vivo. We monitored heart beating and the amplitude of heart muscle contraction before and after the addition of 20 μM of the inhibitors to the specimens.
(§2) The tapping force was standardized. […] For the cytotoxicity assay, zebrafish embryos were incubated in E3 medium containing 0 μM (Control), 5 μM, 10 μM or 20 μM of para-aminoblebbistatin, para-nitroblebbistatin or blebbistatin in 0.1 vol/vol% final concentration of DMSO and monitored for 70 hours.

[2] = target: T1, rabbit skeletal muscle myosin S1 (SkS1) (Oryctolagus cuniculus, UniProt Q28641); assay: Steady state actin activated ATPase, SkS1; type: biochemical; conditions: for IC50: 45 μM actin, 25 °C
T1 construct: SkS1 (rabbit skeletal S1 fragment); from tissue; host or cells: rabbit skeletal muscle
T1 sequence (Q28641 1-844 limits assumed): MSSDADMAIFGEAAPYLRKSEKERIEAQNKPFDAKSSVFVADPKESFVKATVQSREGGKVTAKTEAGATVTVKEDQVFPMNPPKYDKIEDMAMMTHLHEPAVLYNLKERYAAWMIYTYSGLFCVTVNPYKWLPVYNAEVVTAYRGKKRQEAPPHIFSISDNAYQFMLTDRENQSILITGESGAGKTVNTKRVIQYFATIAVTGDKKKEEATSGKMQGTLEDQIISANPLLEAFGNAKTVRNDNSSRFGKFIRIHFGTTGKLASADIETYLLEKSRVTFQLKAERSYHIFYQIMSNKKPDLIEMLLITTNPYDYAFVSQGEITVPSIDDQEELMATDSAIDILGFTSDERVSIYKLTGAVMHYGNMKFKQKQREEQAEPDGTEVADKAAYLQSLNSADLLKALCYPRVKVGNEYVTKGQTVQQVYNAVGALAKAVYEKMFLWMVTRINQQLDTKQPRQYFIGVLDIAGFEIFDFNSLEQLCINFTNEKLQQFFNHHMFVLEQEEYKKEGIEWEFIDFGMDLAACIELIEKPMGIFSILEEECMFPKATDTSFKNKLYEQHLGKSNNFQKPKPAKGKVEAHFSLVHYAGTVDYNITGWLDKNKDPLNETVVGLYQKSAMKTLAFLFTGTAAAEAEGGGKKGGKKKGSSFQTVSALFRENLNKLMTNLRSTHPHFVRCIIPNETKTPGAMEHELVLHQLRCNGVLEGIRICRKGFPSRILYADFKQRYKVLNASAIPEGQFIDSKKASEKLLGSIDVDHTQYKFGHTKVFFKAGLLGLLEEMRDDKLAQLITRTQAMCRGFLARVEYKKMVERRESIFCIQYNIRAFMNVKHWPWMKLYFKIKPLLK
T1 sequence (P02602 whole entry partner, the tested form may be a part): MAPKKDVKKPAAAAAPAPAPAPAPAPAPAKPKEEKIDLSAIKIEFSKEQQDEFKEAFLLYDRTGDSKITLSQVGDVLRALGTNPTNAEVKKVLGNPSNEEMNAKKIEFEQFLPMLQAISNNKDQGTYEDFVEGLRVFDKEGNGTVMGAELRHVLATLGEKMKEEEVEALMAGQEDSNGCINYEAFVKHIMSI
Protocol: […]. Myosin and actin together with the indicated concentration of the inhibitor were pre-incubated for 5 minutes at room temperature and the measurements were initiated with 1 mM ATP. Data were corrected for background ATPase activity of actin. G-actin was prepared accordingly from rabbit skeletal muscle[24] and polymerized by 2 mM MgCl2 for 1 hour at room temperature. Measurements were performed in low salt buffer containing 5 mM HEPES, 2 mM MgCl2, 0.1 mM EGTA and 2 mM DTT at pH 7.2 or assay buffer containing 20 mM HEPES, 40 mM NaCl, 4 mM MgCl2 at pH 7.3 for basal ATPase activity measurements with DdMD.

[3] = cited from earlier work
[4] = Photoconversion / photostability under 480 ± 10 nm irradiation; conditions: 5 μM, up to 15 minutes
Protocol: We compared para-aminoblebbistatin’s photostability to blebbistatin’s by irradiating the molecules in assay buffer at 480 ± 10 nm for different lengths of time (which is a typical GFP excitation range) and recorded the absorption spectra afterwards (Fig. 2d).
Their absorbance spectra were measured at each time point.

[5] = tested on: M2 cells; assay: Inhibition of blebbing (blebbing index) of M2 cells; type: cell-based, human
Protocol: Next, we compared the non-muscle myosin II inhibition by para-aminoblebbistatin, para-nitroblebbistatin and blebbistatin in human melanoma (M2) and HeLa cells. As blebbistatin acquired its name from its ability to block blebbing of M2 cells, we compared blebbing indices[17] of M2 cells in time, incubated in the three different myosin II inhibitors at different concentrations (Fig. 3c–e). Even 5 μM concentrations of the myosin II inhibitors achieved significant decrease in the blebbing indices of the cells within an hour, whereas higher concentrations of the inhibitors completely stopped blebbing of the cells within >40–60 minutes (10 μM) or >20 minutes (25 and 50 μM).
For blebbing index determination, M2 cells were incubated for 30 minutes in PBS in every case prior to the addition of inhibitors, in order to initiate extensive blebbing. Blebbing of the cells was monitored before as well as after inhibitor addition to the cells. DMSO concentration was 0.1 vol/vol% in all experiments. Blebbing index was calculated by summing the initiated blebs in a 5-minute interval (starting at the indicated time points) on a given standard area[17] (whole cells with similar size, diameter = 12 ± 1 μm) and normalizing it to the blebbing index prior to inhibitor treatment.

[6] = target: T1, rabbit skeletal muscle myosin S1 (SkS1); assay: Steady state basal ATPase, SkS1; type: biochemical; conditions: 25 °C
[7] = tested on: zebrafish embryo; design: method as in PMID 24954740; conditions: after 24 hours of incubation; cited from earlier work
[8] = tested on: cldnb:gfp zebrafish embryos; assay: Posterior lateral line primordium (pLLp) migration; type: in vivo, zebrafish (Danio rerio); conditions: 20 μM, 24 hours of incubation
Protocol: However, the highly fluorescent, dense precipitates of blebbistatin disturb imaging in the GFP channel of the microscope. […] In this experiment, cldnb:gfp zebrafish embryos were imaged by an epifluorescent microscope after 24 hours of incubation in the presence of 20 μM concentrations of the indicated inhibitors (Fig. 4d) in order to detect the effect of myosin II inhibition on the proliferating leading edge of the posterior lateral line primordium (pLLp)[21] and visualize the effect of the precipitates by epifluorescent microcopy. […] In the case of para-aminoblebbistatin treatment, the GFP signal of the migrating pLLp can be visualized clearly, while the precipitates of the two other inhibitors highly disturbed the imaging.

[9] = tested on: Acanthamoeba myosin II; design: method as in PMID 15548862; conditions: read-out: IC50 actin activated ATPase activity; cited from earlier work
[10] = tested on: zebrafish skeletal muscle; assay: Fast escape response (C-start), maximal angular velocity; type: in vivo, zebrafish (Danio rerio); conditions: 2 μM
Protocol: as §1, §2

[11] = tested on: HeLa cells; assay: Wound healing assay (cell motility); type: cell-based, human; conditions: 20 μM, 24 hours, uncoated glass; 100% = total diameter of the wound; control 30.6 ± 5.4%
Protocol: For wound healing assays, 200 μl of HeLa cells were plated on 35 mm borosilicate glass imaging dishes at 300,000 cells/ml concentrations and incubated for 24 hours. 1 hour prior to wounding, cells were incubated in 20 μM of the different myosin II inhibitors. After one hour, scratches were made with pipette tips in monolayer cultures and the motility of cells for occupying the wound was monitored for 24 hours with a Foculus Digital Camera (IEEE1394). Analysis of cell motility was carried out by ImageJ, by measuring the distance between two lines fitted on the two sides of the approaching cell edges created by the pipette tips.

[12] = Solubility assays in assay buffer (supernatant concentration after centrifugation); conditions: for Solubility: room temperature
Protocol: (§3) 50 μM of the inhibitors were dissolved in assay buffer (see Experimental Procedures) containing 0.1 or 1 vol/vol% DMSO, centrifuged at the indicated times and the concentration of the supernatants were determined at each time point (Fig. 2a,b).
(§4) The DMSO content was 1%. […] The experiments were repeated three times.

[13] = pH 7.3
Protocol: as §3, §4

[14] = physchem
Protocol: as §3, §4

Cc1ccc2c(c1)C(=O)C1(O)CCN(c3ccccc3)C1=N2 (centres unmarked) [blebbistatin]
Time within which amplitude of contraction and blood circulation dropped drastically [1]: within the first hour | IC50 [2]: 110 ± 9 nM | Solubility (limited solubility) ([3]; depending on the conditions of the measurements): 7 to 20 µM | Concentration above which slow precipitation is observed ([3]; water): above 10 μM | Photostability: change of absorption spectrum on irradiation [4]: changed markedly | Time constant τ of inhibition of blebbing ([5]; 5 μM): 24.6 ± 2 min | Time constant τ of inhibition of blebbing ([5]; 10 μM): 10.5 ± 0.8 min | Time constant τ of inhibition of blebbing ([5]; 25 μM): 5.4 ± 1 min | IC50 [6]: 300 ± 30 nM | Toxicity in live zebrafish embryo tests [7]: highly toxic | Effect on pLLp migration [8]: halted pLLp migration | IC50 [9]: 83 µM | Half inhibition time of maximal angular velocity [10]: 0.6 h | Relative migration of HeLa cells [11]: 51.4 ± 4.7% | Solubility ([12]; 0.1 vol/vol% DMSO in assay buffer): 10.9 ± 0.9 µM (≈ 3.19 µg/mL) | Solubility ([12]; 1 vol/vol% DMSO in assay buffer): 9.3 ± 0.7 µM (≈ 2.72 µg/mL) | Solubility in aqueous buffer ([12]; abstract statement): below 10 micromolar | Time to drop to half concentration (precipitation kinetics) ([12]; freshly prepared 50 μM sample): < 20 min | Equilibrium saturation concentration ([12]; reached in two hours from 50–100 μM): 9 µM

Cc1ccc2c(c1)C(=O)[C@]1(O)CCN(c3ccc(N)cc3)C1=N2 [para-aminoblebbistatin]
Time within which amplitude of contraction and blood circulation dropped drastically [1]: within three hours | Time the supernatant concentration stayed constant ([13]; 298 μM): 4 h | Solubility [13]: 426 ± 1.7 µM (≈ 131 µg/mL) | IC50 [2]: 470 ± 60 nM | Fold higher IC50 of AmBleb on SkS1 ([2]; comparator not named (matches ratio to Bleb)): 4.3 times | Time constant τ of inhibition of blebbing ([5]; 5 μM): 25.0 ± 4.3 min | Time constant τ of inhibition of blebbing ([5]; 10 μM): 16.8 ± 1.6 min | Time constant τ of inhibition of blebbing ([5]; 25 μM): 9.9 ± 0.3 min | Time constant τ of inhibition of blebbing ([5]; 50 μM): 7.8 ± 0.3 min | IC50 [6]: 1300 ± 100 nM | Effect on pLLp migration [8]: halted pLLp migration | Half inhibition time of maximal angular velocity [10]: 3.2 h | Solubility ([14]; Solubility in aqueous buffer): 440 µM (≈ 135 µg/mL) | Solubility ([14]; pH 7.3, Solubility): 298 ± 2.5 µM (≈ 91.6 µg/mL) | Relative migration of HeLa cells [11]: 62.6 ± 3.6% | Concentration at which stable solutions are formed [12]: over 100 μM
